The values that follow come from the SangsterLogP compilation.

For orientation: logP means the decadic logarithm of the partition coefficient of the neutral form, usually between octanol and water. A lower logP goes with lower lipophilicity. For orientation: logD means lipophilicity at a set pH, counting ionised and neutral species.

A short description of the first data set: method code SF, from Hansch, C. & Leo, A. (1987). Log P database [Dataset]. Pomona College Medicinal Chemistry Project.
Conditions: not given
`Cc1cccs1` yielded a logP of 2.33.
`CC(C)C(=O)Nc1ccc(Cl)c(Cl)c1` gave a logP of 3.72.
The same measure, in the same setting: for `O=c1[nH]nc(Sc2ccccc2)[nH]1` the value was 1.46; for `NC(=O)c1cccc(N)c1`, -0.33.
Still for that read-out and setting: for `CN(C)C(=O)Oc1ccccc1` the value was 1.56; for `Nc1ccc2nc3ccccc3cc2c1`, 2.62.
Regarding `NC(=O)Oc1ccccc1`, the lipophilicity (logP) worked out at 1.08.
In turn, `CN(C)/N=N/c1cn([C@@H]2O[C@H](CO)[C@@H](O)[C@H]2O)c(=O)[nH]c1=O` displayed a log partition coefficient (logP) of -1.82.
The same measure, in the same setting: for `Nc1c(S(=O)(=O)O)ccc2ccccc12` the value was -0.97.
In the case of `CCOc1ccc(C(N)=O)cc1`, the log partition coefficient (logP) stood at 1.3.
Same read-out and setting: for `CC(=O)OCCOC(=O)c1ccccc1` the value was 1.85.
On to `COc1cc(S(C)=O)ccc1-c1cn2ccncc2n1` (centres undefined), for which the logP was 1.11.
`CN(C(=O)COc1ccccc1)c1ccccc1` showed a logP of 2.25.
Still for that read-out and setting: the value for `CC(C)Oc1ccccc1O` was 2.09; that for `O=[N+]([O-])c1ccc2[nH]c(CCc3nc4cc([N+](=O)[O-])ccc4[nH]3)nc2c1` was 1.29.
On the same count and under the same terms, the value for `CCCCCN(CCCCC)/N=C/c1c2c(O)c3c(O)c(C)c4c(c3c1O)C(=O)C(C)(O/C=C\C(OC)C(C)C(OC(C)=O)C(C)C(O)C(C)C(O)C(C)/C=C\C=C(C)C(=O)N2)O4` (centres undefined) was 3.47.
With `CC(=O)NNC(=O)c1ccccn1`, the logP is -0.59.
On to `CC1(C)Cc2cccc(O)c2O1`, for which the logP came out at 2.08.
For `Cc1ccc(CO)cc1`, the logP is 1.59.
As to `CS(=O)(=O)Nc1cccc(NS(C)(=O)=O)c1`, the logP is 0.07.
On the same count and under the same terms, the value for `CCOP(=S)(OCC)Oc1ccc(SC)cc1Cl` was 4.4; that for `CN(C(=O)CCS(C)=O)c1ccc(S(=O)(=O)N(C)C)cc1` (centres undefined) was -0.67.
On the same count and under the same terms, for `c1ccc2[nH]c(CCCCCCc3nc4ccccc4[nH]3)nc2c1` the value was 1.66.
On to `c1cn[nH]c1`, for which the logP amounted to 0.13.
`CCOC(=O)C(=Cc1ccccc1)C(=O)OCC` showed a log partition coefficient (logP) of 3.13.
Same read-out and setting: for `O=C(C(=O)c1ccccc1)c1ccccc1` the value was 3.38; for `O=[N+]([O-])c1ccc2[nH]c(CCCc3nc4cc([N+](=O)[O-])ccc4[nH]3)nc2c1`, 1.62; for `CC(=O)N(C)/N=N/c1ccc(F)cc1`, 2.77.
Same read-out and setting: for `O=C(NO)c1ccccc1` the value was 0.26; for `c1ccc(N2CCOCC2)cc1`, 1.36; for `OCC(O)COc1ccccc1` (centres undefined), 0.7.
As to `O=S1(=O)NC(C2CC=CC2)=Nc2ccccc21`, the logP amounted to 1.53.
The same measure, in the same setting: for `FC(F)Cl` the value was 1.08; for `NS(=O)(=O)c1ccc(C(=O)c2ccncc2)cc1`, 0.56.
Same read-out and setting: for `O=C(c1ccco1)C(O)c1ccco1` (centres undefined) the value was 0.54; for `c1ccc(-c2ccc(C(c3ccccc3)n3ccnc3)cc2)cc1` (centres undefined), 4.77; for `Cn1nnc2ccccc2c1=O`, 0.84.
`O=C(O)Cc1ccc(S(=O)(=O)F)cc1` gave a log partition coefficient (logP) of 1.86.
In turn, `COP(=O)(NCC(C)C)Oc1cc(Cl)c(Cl)cc1Cl` (centres undefined) yielded a logP of 3.86.
Still for that read-out and setting: the value for `CO[C@H]1C=CO[C@@]2(C)Oc3c(C)c(O)c4c(O)c(c(CN5CCN(C)CC5)c(O)c4c3C2=O)NC(=O)/C(C)=C\C=C/[C@@H](C)[C@@H](O)[C@@H](C)[C@H](O)[C@H](C)[C@@H](OC(C)=O)[C@H]1C` was 1.76.
On the same count and under the same terms, the value for `CN(C(=O)CCBr)c1ccc(S(=O)(=O)N(C)C)cc1` was 1.13.
Compound `NC(=O)C(=Cc1ccccc1)C(N)=O` yielded a log partition coefficient (logP) of -0.13.
In turn, `CCOC(=O)C(=Cc1ccccc1OC)C(=O)OCC` returned a log partition coefficient (logP) of 3.29.
The same measure, in the same setting: the value for `CC(C)=NO` was 0.12; that for `Clc1ccc2[nH]c(CCCCCc3nc4cc(Cl)ccc4[nH]3)nc2c1` was 1.98.
On the same count and under the same terms, for `C(=N\c1ccccc1)/c1ccccc1` the value was 2.82; for `Cc1c([N+](=O)[O-])cc(C(N)=O)cc1[N+](=O)[O-]`, 0.68; for `CSc1ccc(C=NN=C(N)NN)cc1`, 1.35.
Take `O=c1cc2ccccc2n[nH]1`: the log partition coefficient (logP) came to 0.68.
Compound `CC(C)(C)c1ccccc1` yielded a logP of 4.11.
In turn, `Cc1nnc(SCc2ccccc2)o1` had a lipophilicity (logP) of 1.74.
On the same count and under the same terms, the value for `COc1ccc2c(c1)N(CCCN(C)C)c1ccccc1S2` was 4.46; that for `O=C(NCC(O)c1ccc([N+](=O)[O-])cc1)C(F)(F)F` (centres undefined) was 1.46; that for `COc1ccc(/N=N/N(C)C(C)=O)cc1` was 2.61.
With `N#CN=[N+]([O-])c1ccc([N+](=O)[O-])cc1`, the lipophilicity (logP) worked out at 1.51.
On to `CC1=Nc2ccc(C(F)(F)F)cc2S(=O)(=O)N1`, for which the log partition coefficient (logP) was determined as 1.51.
Same read-out and setting: for `CN(C)C(=O)Nc1ccc([N+](=O)[O-])cc1` the value was 1.51; for `CCOCCOC(=O)C(C#N)=C(CC)Nc1ccc(N)cc1`, 2.27.
In turn, `CCCOC=O` displayed a logP of 0.83.
Same read-out and setting: for `NS(=O)(=O)NCCc1ccccc1` the value was 0.81; for `O=C1OC2(CCCC2)c2ccccc21`, 2.56.
On the same count and under the same terms, the value for `CC1=Nc2ccc(I)cc2S(=O)(=O)N1` was 1.61.
Still for that read-out and setting: for `CCCC(=O)Nc1ccccc1` the value was 2.05; for `CC(=O)Sc1ccccc1`, 2.23; for `O=C(Nc1ccccc1)N(c1ccccc1)c1ccccc1`, 3.28.
Compound `CCCCOC(=O)c1ccc(C(=O)OCCCC)cc1` yielded a lipophilicity (logP) of 5.53.
Same read-out and setting: the value for `N#CN=[N+]([O-])c1ccc(F)cc1` was 1.8; that for `CCCCOC1NC(=O)NC(=O)C1=[N+]=[N-]` (centres undefined) was -0.55; that for `CN(C(=O)CCOS(C)(=O)=O)c1ccc(S(=O)(=O)N(C)C)cc1` was -0.68.
For the compound `CC(=O)NC1CCSC1=O` (centres undefined), the lipophilicity (logP) is -0.35.
On the same count and under the same terms, for `CCCCN(C)N=Nc1cn([C@@H]2O[C@H](CO)[C@@H](O)[C@H]2O)c(=O)n(C)c1=O` the value was -0.45.
Take `C=CCc1cccc2c(=O)c(C)c(-c3ccccc3)oc12`: the logP turned out to be 4.67.
In turn, `CCCCOc1ccc(C(N)=O)cc1` displayed a logP of 2.48.
Turning to `Cc1ccccc1OC(=O)N(C)C`, the log partition coefficient (logP) was found to be 1.86.
The same measure, in the same setting: the value for `OCCOCCN1CCN(CCCN2c3ccccc3Sc3ccc(C(F)(F)F)cc32)CC1` was 4.49.
Compound `Clc1ccc2[nH]c(CCc3nc4cc(Cl)ccc4[nH]3)nc2c1` came in with a logP of 1.13.
On to `FC(F)(F)Sc1ccccc1`, for which the logP was 3.57.
The same measure, in the same setting: for `COC(=O)c1ccsc1` the value was 1.76; for `CCCCOC(=O)c1cccc(C(=O)OCCCC)c1`, 4.26; for `CC(=O)c1ccco1`, 0.52.
Still for that read-out and setting: the value for `CO[C@H]1C=CO[C@@]2(C)Oc3c(C)c(O)c4c(O)c(c(C=NN5CCNCC5)c(O)c4c3C2=O)NC(=O)C(C)=CC=C[C@H](C)[C@H](O)[C@@H](C)[C@@H](O)[C@@H](C)[C@H](OC(C)=O)[C@@H]1C` was 1.12; that for `CCOC(=O)CNCCCCCSc1c2[nH]cnc2nc[n+]1[O-]` was 0.87; that for `CC1=Nc2c(I)cc(Cl)cc2S(=O)(=O)N1` was 1.81.
The same measure, in the same setting: the value for `COc1cccc([N+]([O-])=NC#N)c1` was 2.24; that for `C=C(CC(Cl)(Cl)Cl)c1ccccc1` was 4.56.
Consider `CCC(C)NC(=O)C=C(c1ccc(Cl)cc1)C(C)C` (centres undefined), for which the logP came to 4.03.
The compound `CCOS(=O)(=O)OCC` gave a log partition coefficient (logP) of 1.14.
Same read-out and setting: the value for `N#CN=[N+]([O-])c1ccc(Br)cc1` was 2.5.
On the same count and under the same terms, the value for `O=S(=O)(Oc1ccccc1)c1ccccc1` was 3.06; that for `O=NN(CCCl)C(=O)NC12CC3CC(CC(C3)C1)C2` was 3.56.
On the same count and under the same terms, for `CCCCN(C)C` the value was 1.7; for `c1cnc2nccnc2c1`, -0.04.
Compound `O=C(CO)OCc1ccccc1` registered a lipophilicity (logP) of 1.12.
`CCOC(=O)c1cccs1` showed a logP of 2.33.
The compound `COc1ccccc1N` displayed a logP of 1.18.
The same measure, in the same setting: for `CNC(=O)Oc1cc(C)c(Cl)cc1C` the value was 2.95; for `COc1cccc(OC)c1OC`, 1.53.
Consider `OC12CC3CC(CC(C3)C1)C2`, for which the logP came out at 2.14.
On the same count and under the same terms, for `O=C(NC(CO)C(O)c1ccc(NC(=O)C2CC2)cc1)C(Cl)Cl` (centres undefined) the value was 0.75; for `CCC(C)NC(=O)C=C(Br)c1ccc(Cl)cc1` (centres undefined), 3.9; for `c1ccn2nnnc2c1`, -0.09.
As for `CCOP(=S)(OCC)SCn1nnc2ccccc2c1=O`, the logP is 3.4.
`CC(=O)Oc1ccccc1C#N`: the logP is 1.33.
The compound `CCOCOCC` registered a lipophilicity (logP) of 0.84.
In turn, `CC(=O)Nc1ccccc1NC(C)=O` displayed a lipophilicity (logP) of -0.03.
Turning to `CC1=Nc2ccc(Br)cc2S(=O)(=O)N1`, the logP was determined as 1.37.
Same read-out and setting: the value for `CN(C)c1nc2ccccc2o1` was 2.1.

The data set is the same for the next values; noted with them: pH 0.7.
For the compound `O=C(O)c1cc(=O)c2ccccc2o1`, the logD stood at 1.63.

Staying with this data set, now noted: pH 1.4.
Consider `Oc1cc(O)cc(O)c1`, for which the logD amounted to 0.16.

Still in this data set, the particulars now being: pH 4.2.
Compound `COCCN(N=Nc1[nH]cnc1C(N)=O)C(C)(C)C` registered a pH-dependent lipophilicity (logD) of 1.14.

The same data set, now with this note: pH 5.9.
`CCOc1cc(Oc2ccc(C(F)(F)F)cc2Cl)ccc1[N+](=O)[O-]` came in with a logD of 4.7.

The same data set, now with this note: pH 6.2.
With `Nc1nc(CON=CC(=O)NC2C(=O)N3C(C(=O)OC4OC(=O)c5ccccc54)=CCSC23)cs1` (centres undefined), the logD was 1.28.

The same data set, now with this note: pH 7.0.
`O=CNc1ccc(F)cc1` yielded a pH-dependent lipophilicity (logD) of 1.27.
The same measure, in the same setting: for `COC(=O)c1ccc(C(=O)OC)cc1` the value was 2.25.

Staying with this data set, now noted: pH 7.4.
In turn, `CN(C)/N=N/c1ccccc1` registered a pH-dependent lipophilicity (logD) of 2.59.
For `Cc1cc(C(=O)NNCc2ccccc2)no1`, the pH-dependent lipophilicity (logD) worked out at 1.49.

The data set is the same for the next values; noted with them: pH 8.7.
Compound `CN1CCC(CN2c3ccccc3Sc3ccccc32)C1` (centres undefined) gave a pH-dependent lipophilicity (logD) of 3.87.

Staying with this data set, now noted: pH 11.0.
For the compound `N=c1ccn2c(n1)OC1C(O)C(CO)OC12` (centres undefined), the log distribution coefficient (logD) was -2.37.
Regarding `CC(C)N(Cc1cccnc1)C(C)C`, the logD came out at 2.27.
`c1cncc(CCN2CCCCC2)c1` had a logD of 1.66.

The data set is the same for the next values; noted with them: pH 13.0.
`NCc1ccc([N+](=O)[O-])cc1` had a logD of 1.06.
As for `NN(c1ccccc1)c1ccccc1`, the log distribution coefficient (logD) is 2.8.
In turn, `CC1(C)N=C(N)N=C(N)N1c1cccc(C#N)c1` yielded a logD of -0.24.
The same measure, in the same setting: for `c1ccc(N2CCCCC2)cc1` the value was 2.98.
